Data from patent publication US20080268072A1, “Method of Improving Anticancer Effect of Pulsatillae Radix and a Composition Prepared by the Method” (Song-Bae Kim, priority 2004, published 2008).

Key:
[1] = test system: tumor; experiment: Antitumor activity (test not specified)
[2] = test system: LL/2 cancer; settings: BDF1 mouse; cited from earlier work
[3] = test system: NCI-H23 cell line; settings: comparison with adriamicine; cited from earlier work

Row | Compound | antitumor activity [1] | inhibition effect against LL/2 cancer [2] [%] | activity against NCI-H23 cell line compared with adriamicine [3]
1 | 3-0-[0-α-L-rhamnopyranosyl-(1→2)-[0-β-D-glucopyranosyl-(1→4)]-α-L-arabinopyranosyl]hederagenin 28-0-α-L-rhamnopyranosyl-(1→4-[0-β-D-glucopyranosyl-(1→6]-β-D-glucopyranosyl ester [SB 365-0] | no antitumor activity | – | –
2 | CC1OC(OC2C(O[C@H]3CC[C@@]4(C)C(CC[C@]5(C)C4CC=C4C6CC(C)(C)CC[C@]6(C(=O)O)CC[C@]45C)[C@]3(C)CO)OCC(OC3OC(CO)C(O)C(O)C3O)C2O)C(O)C(O)C1O (stereo partly drawn) [SB365, 3-0-[0-α-L-rhamnopyranosyl-(1→2)-[0-β-D-glucopyranosyl-(1→4)]-α-L-arabinopyranosyl]hederagenin] | – | 80 | more strong activity
